In patent US20020103377A1, “Piperidinyloxy and pyrrolidinyloxy oxazolidinone antibacterials” (priority 1999, published 2002):
≈ marks a conversion by molar mass, not a printed value.

Assays:
[1] = system: E. faecium OC3312; assay: MIC by microdilution broth method (NCCLS), E. faecium OC3312; format: cell-based; details: Enterococcus faecium, OC3312, microdilution broth, cation adjusted Mueller-Hinton broth, 35° C., 16-20 hours; read-out: MIC (μg/mL) E. faecium OC3312
Method: (§1) Minimal inhibitory concentration (MIC) has been an indicator of in vitro antibacterial activity widely used in the art. The in vitro antimicrobial activity of the compounds was determined by the microdilution broth method following the test method from the National Committee for Laboratory Standards (NCCLS). This method is described in the NCCLS Document M7-A4, Vol. 17, No.2, “Methods for Dilution Antimicrobial Susceptibility Test for Bacteria that Grow Aerobically-Fourth Edition”, which is incorporated herein by reference.
(§2) In this method two-fold serial dilutions of drug in cation adjusted Mueller-Hinton broth are added to wells in microdilution trays. The test organisms are prepared by adjusting the turbidity of actively growing broth cultures so that the final concentration of test organism after it is added to the wells is approximately 5×10^4 CFU/well.
(§3) Following inoculation of the microdilution trays, the trays are incubated at 35° C. for 16-20 hours and then read. […] The amount of growth in the wells containing the test compound is compared with the amount of growth in the growth-control wells (no test compound) used in each tray. As set forth in Table 1, compounds of the present invention were tested against a variety of Gram positive and Gram negative pathogenic bacteria resulting in a range of activities, from 1 to ≧128 μg/mL depending on the organism tested.

[2] = system: MRSA OC 2878; assay: MIC by microdilution broth method (NCCLS), MRSA OC 2878; format: cell-based, Staphylococcus aureus; details: Staphylococcus aureus, MRSA, cation adjusted Mueller-Hinton broth, 35° C., 16-20 hours, read-out: MIC (μg/mL) MRSA OC 2878
Method: as §1, §2, §3

[3] = system: S. aureus; assay: MIC by microdilution broth method (NCCLS), S. aureus Broth; format: cell-based; details: Staphylococcus aureus, cation adjusted Mueller-Hinton broth, 35° C., 16-20 hours, read-out: MIC (μg/mL) S. aureus Broth
Method: as §1, §2, §3

Compound	MIC [1] [µg/mL]	MIC [2] [µg/mL]	MIC [3] [µg/mL]	melting point [°C]
CC(=O)NCC(=O)N1CCC(Oc2ccc(N3C[C@H](CNC(C)=O)OC3=O)cc2F)CC1 [Compound 18, (S)-N-[[3-[3-Fluoro-4-{N-(α-N-acetylaminoacetyl)piperidinyl-4-oxy}phenyl]-2-oxo-5-oxazolidinyl]methyl]acetamide]	64 (≈ 142 µM)	16 (≈ 35.5 µM)	8 (≈ 17.8 µM)	66 to 68
CC(=O)NC[C@H]1CN(c2ccc(OC3CCN(C(=O)N4CCOCC4)CC3)c(F)c2)C(=O)O1 [Compound 25, (S)-N-[[3-[3-Fluoro-4-{N-(4-morpholinocarbamoyl)piperidinyl-4-oxy}phenyl]-2-oxo-5-oxazolidinyl]methyl]acetamide]	64 (≈ 138 µM)	32 (≈ 68.9 µM)	32 (≈ 68.9 µM)	167 to 170
CC(=O)NC[C@H]1CN(c2ccc(OC3CN(C(=O)CO)C3)c(F)c2)C(=O)O1 [Compound 61, (S)-N-[[3-[3-Fluoro-4-{N-(α-hydroxyacetyl)azetidinyl-3-oxy}phenyl]-2-oxo-5-oxazolidinyl]methyl]acetamide]	128 (≈ 336 µM)	64 (≈ 168 µM)	32 (≈ 83.9 µM)	158 to 160
CC(=O)NC[C@H]1CN(c2ccc(OC3CCN(C(=O)CO)C3)c(F)c2)C(=O)O1 (stereo partly drawn) [Compound 40, (S)-N-[[3-[3-Fluoro-4-{N-(α-hydroxyacetyl)pyrrolidinyl-3-oxy}phenyl]-2-oxo-5-oxazolidinyl]methyl]acetamide]	16 (≈ 40.5 µM)	8 (≈ 20.2 µM)	4 (≈ 10.1 µM)	97 to 99
CC(=O)NC[C@H]1CN(c2ccc(OC3CCN(C(=O)OC(C)(C)C)CC3)nc2)C(=O)O1 [Compound 41, (5S)-3-[6-{N-(t-Butoxycarbonyl)piperidinyl-4-oxy}-pyridin-3-yl]-5-methylacetamide-oxazolidin-2-one]	> 128	64 (≈ 147 µM)	128 (≈ 295 µM)	99 to 101
CC(=O)NC[C@H]1CN(c2ccc(OC3CN(C(=O)COCc4ccccc4)C3)c(F)c2)C(=O)O1 [Compound 58, (S)-N-[[3-[3-Fluoro-4-{N-(benzyloxyacetyl)azetidinyl-3-oxy}phenyl]-2-oxo-5-oxazolidinyl]methyl]acetamide]	4 (≈ 8.48 µM)	4 (≈ 8.48 µM)	8 (≈ 17 µM)	119 to 121
CC(=O)NC[C@H]1CN(c2ccc(OC3CCCN(c4ncccn4)C3)c(F)c2)C(=O)O1 (stereo partly drawn) [Compound 38, (S)-N-[[3-[3-Fluoro-4-{N-(2-pyrimidinyl)piperidinyl-3-oxy}phenyl]-2-oxo-5-oxazolidinyl]methyl]acetamide]	32 (≈ 74.5 µM)	8 (≈ 18.6 µM)	16 (≈ 37.3 µM)	130 to 131
CC(=O)NC[C@H]1CN(c2ccc(OC3CCN(C(=O)CCCc4cccnc4)CC3)c(F)c2)C(=O)O1 [Compound 26, (S)-N-[[3-[3-Fluoro-4-{N-(4-pyridin-3-yl-butyryl)piperidinyl-4-oxy}phenyl]-2-oxo-5-oxazolidinyl]methyl]acetamide]	16 (≈ 32.1 µM)	8 (≈ 16 µM)	16 (≈ 32.1 µM)	42 to 45
CC(=O)NC[C@H]1CN(c2ccc(OC3CCN(C(=O)c4cccc(C#N)c4)CC3)c(F)c2)C(=O)O1 [Compound 12, (S)-N-[[3-[3-Fluoro-4-{N-(3-cyanobenzoyl)piperidinyl-4-oxy}phenyl]-2-oxo-5-oxazolidinyl]methyl]acetamide]	16 (≈ 33.3 µM)	8 (≈ 16.6 µM)	8 (≈ 16.6 µM)	82 to 85
CC(=O)NC[C@H]1CN(c2ccc(OC3CCN(C(=O)c4ccccc4)CC3)nc2)C(=O)O1 [Compound 46, (5S)-3-[6-{N-(Benzoyl)piperidinyl-4-oxy}-pyridin-3-yl]-5-methylacetamide-oxazolidin-2-one]	> 128	64 (≈ 146 µM)	64 (≈ 146 µM)	180 to 182
CC(=O)NC[C@H]1CN(c2ccc(OC3CCN(c4ccc(C#N)cn4)CC3)c(F)c2)C(=O)O1 [Compound 14, (S)-N-[[3-[3-Fluoro-4-{N-(5-cyano-2-pyridyl)piperidinyl-4-oxy}phenyl]-2-oxo-5-oxazolidinyl]methyl]acetamide]	8 (≈ 17.6 µM)	4 (≈ 8.82 µM)	4 (≈ 8.82 µM)	78 to 84
CC(=O)NC[C@H]1CN(c2ccc(OC3CCN(C(=O)CNC(=O)OCc4ccccc4)CC3)c(F)c2)C(=O)O1 [Compound 15]	8 (≈ 14.7 µM)	8 (≈ 14.7 µM)	8 (≈ 14.7 µM)	
COc1cccc(C(=O)N2CCC(Oc3ccc(N4C[C@H](CNC(C)=O)OC4=O)cn3)CC2)c1 [Compound 48, (5S)-3-[6-{N-(3-Methoxybenzoyl)piperidinyl-4-oxy}-pyridin-3-yl]-5-methylacetamide-oxazolidin-2-one]	> 128	32 (≈ 68.3 µM)	64 (≈ 137 µM)	
CC(=O)NC[C@H]1CN(c2ccc(OC3CN(S(C)(=O)=O)C3)c(F)c2)C(=O)O1 [Compound 57, (S)-N-[[3-[3-Fluoro-4-{N-(methanesulfonyl)azetidinyl-3-oxy}phenyl]-2-oxo-5-oxazolidinyl]methyl]acetamide]	16 (≈ 39.9 µM)	16 (≈ 39.9 µM)	16 (≈ 39.9 µM)	
CC(=O)NC[C@H]1CN(c2ccc(OC3CCCN(C(=O)COCc4ccccc4)C3)c(F)c2)C(=O)O1 (stereo partly drawn) [Compound 35, (S)-N-[[3-[3-Fluoro-4-{N-(benzyloxyacetyl)piperidinyl-3-oxy}phenyl]-2-oxo-5-oxazolidinyl]methyl]acetamide]	64 (≈ 128 µM)	32 (≈ 64.1 µM)	32 (≈ 64.1 µM)	
CC(=O)NC[C@H]1CN(c2ccc(OC3CCN(C(=O)CO)CC3)c(F)c2)C(=O)O1 [Compound 4, (S)-N-[[3-[3-Fluoro-4-{N-(α-hydroxyacetyl)piperidinyl-4-oxy}phenyl]-2-oxo-5-oxazolidinyl]methyl]acetamide]	8 (≈ 19.5 µM)	4 (≈ 9.77 µM)	4 (≈ 9.77 µM)	
COC(=O)N1CCC(Oc2ccc(N3C[C@H](CNC(C)=O)OC3=O)cc2F)CC1 [Compound 8, (S)-N-[[3-[3-fluoro-4-{N-(methoxycarbonyl)piperidinyl-4-oxy}phenyl]-2-oxo-5-oxazolidinyl]methyl]acetamide]	8 (≈ 19.5 µM)	4 (≈ 9.77 µM)	8 (≈ 19.5 µM)	
CC(=O)NC[C@H]1CN(c2ccc(OC3CCN(C(=O)c4ccc(C#N)cc4)CC3)nc2)C(=O)O1 [Compound 45, (5S)-3-[6-{N-(4-Cyanobenzoyl)piperidinyl-4-oxy}-pyridin-3-yl]-5-methylacetamide-oxazolidin-2-one]	128 (≈ 276 µM)	64 (≈ 138 µM)	64 (≈ 138 µM)	
CC(=O)NC[C@H]1CN(c2ccc(OC3CCN(C(=O)CO)CC3)cc2)C(=O)O1 [Compound 31, (S)-N-[[3-[4-{N-(α-Hydroxyacetyl)piperidinyl-4-oxy}phenyl]-2-oxo-5-oxazolidinyl]methyl]acetamide]	32 (≈ 81.8 µM)	16 (≈ 40.9 µM)	16 (≈ 40.9 µM)	
CC(=O)NC[C@H]1CN(c2ccc(OC3CCN(C(=O)c4cccc(F)c4)CC3)nc2)C(=O)O1 [Compound 47, (5S)-3-[6-{N-(3-Fluorobenzoyl)piperidinyl-4-oxy}-pyridin-3-yl]-5-methylacetamide-oxazolidin-2-one]	> 128	64 (≈ 140 µM)	64 (≈ 140 µM)	
CC(=O)NC[C@H]1CN(c2ccc(OC3CCN(C(=O)COCc4cccnc4)CC3)c(F)c2)C(=O)O1 [Compound 55]	8 (≈ 16 µM)	16 (≈ 32 µM)	16 (≈ 32 µM)	
CC(=O)NC[C@H]1CN(c2ccc(OC3CCN(C(=O)N(C)C)CC3)nc2)C(=O)O1 [Compound 49, (5S)-3-[6-{N-(Dimethylcarbamoyl)piperidinyl-4-oxy}-pyridin-3-yl]-5-methylacetamide-oxazolidin-2-one]	> 128	128 (≈ 316 µM)	> 64	
CC(=O)NC[C@H]1CN(c2ccc(OC3CCN(C(C)=O)CC3)cc2)C(=O)O1 [Compound 32, (S)-N-[[3-[4-{N-(Acetyl)piperidinyl-4-oxy}phenyl]-2-oxo-5-oxazolidinyl]methyl]acetamide]	32 (≈ 85.2 µM)	8 (≈ 21.3 µM)	16 (≈ 42.6 µM)	
CC(=O)NC[C@H]1CN(c2ccc(OC3CCCN(C(C)=O)C3)c(F)c2)C(=O)O1 (stereo partly drawn) [Compound 37, (S)-N-[[3-[3-Fluoro-4-{N-(acetyl)piperidinyl-3-oxy}phenyl]-2-oxo-5-oxazolidinyl]methyl]acetamide]	16 (≈ 40.7 µM)	8 (≈ 20.3 µM)	8 (≈ 20.3 µM)	
CC(=O)NC[C@H]1CN(c2ccc(OC3CCN(C(C)=O)CC3)c(F)c2)C(=O)O1 [Compound 7, (S)-N-[[3-[3-Fluoro-4-{N-(acetyl)piperidinyl-4-oxy}phenyl]-2-oxo-5-oxazolidinyl]methyl]acetamide]	16 (≈ 40.7 µM)	8 (≈ 20.3 µM)	8 (≈ 20.3 µM)	
COCC(=O)N1CCC(Oc2ccc(N3C[C@H](CNC(C)=O)OC3=O)cc2F)CC1 [Compound 5, (S)-N-[[3-[3-Fluoro-4-{N-(methoxyacetyl)piperidinyl-4-oxy}phenyl]-2-oxo-5-oxazolidinyl]methyl]acetamide]	16 (≈ 37.8 µM)	8 (≈ 18.9 µM)	8 (≈ 18.9 µM)	
